Source: patent US8569344B2, “N-piperidinyl acetamide derivatives as calcium channel blockers” (Zalicus Pharmaceuticals Ltd., priority 2008, dated 2013)

What was measured:
[1] = molecular target: T1, human α1H T-type channels (Homo sapiens, UniProt O95180); test: T-type calcium channel block, whole cell patch clamp in HEK cells (α1H); assay type: cell-based; settings: HEK cells, patch clamp, mainly non-inactivated protocol; values above 10 μM shown as 10 μM; read-out: T-type Calcium Channel Block α1H IC50
T1 construct: expressed in transfected cells; host or cells: HEK 293
T1 sequence (O95180 whole entry): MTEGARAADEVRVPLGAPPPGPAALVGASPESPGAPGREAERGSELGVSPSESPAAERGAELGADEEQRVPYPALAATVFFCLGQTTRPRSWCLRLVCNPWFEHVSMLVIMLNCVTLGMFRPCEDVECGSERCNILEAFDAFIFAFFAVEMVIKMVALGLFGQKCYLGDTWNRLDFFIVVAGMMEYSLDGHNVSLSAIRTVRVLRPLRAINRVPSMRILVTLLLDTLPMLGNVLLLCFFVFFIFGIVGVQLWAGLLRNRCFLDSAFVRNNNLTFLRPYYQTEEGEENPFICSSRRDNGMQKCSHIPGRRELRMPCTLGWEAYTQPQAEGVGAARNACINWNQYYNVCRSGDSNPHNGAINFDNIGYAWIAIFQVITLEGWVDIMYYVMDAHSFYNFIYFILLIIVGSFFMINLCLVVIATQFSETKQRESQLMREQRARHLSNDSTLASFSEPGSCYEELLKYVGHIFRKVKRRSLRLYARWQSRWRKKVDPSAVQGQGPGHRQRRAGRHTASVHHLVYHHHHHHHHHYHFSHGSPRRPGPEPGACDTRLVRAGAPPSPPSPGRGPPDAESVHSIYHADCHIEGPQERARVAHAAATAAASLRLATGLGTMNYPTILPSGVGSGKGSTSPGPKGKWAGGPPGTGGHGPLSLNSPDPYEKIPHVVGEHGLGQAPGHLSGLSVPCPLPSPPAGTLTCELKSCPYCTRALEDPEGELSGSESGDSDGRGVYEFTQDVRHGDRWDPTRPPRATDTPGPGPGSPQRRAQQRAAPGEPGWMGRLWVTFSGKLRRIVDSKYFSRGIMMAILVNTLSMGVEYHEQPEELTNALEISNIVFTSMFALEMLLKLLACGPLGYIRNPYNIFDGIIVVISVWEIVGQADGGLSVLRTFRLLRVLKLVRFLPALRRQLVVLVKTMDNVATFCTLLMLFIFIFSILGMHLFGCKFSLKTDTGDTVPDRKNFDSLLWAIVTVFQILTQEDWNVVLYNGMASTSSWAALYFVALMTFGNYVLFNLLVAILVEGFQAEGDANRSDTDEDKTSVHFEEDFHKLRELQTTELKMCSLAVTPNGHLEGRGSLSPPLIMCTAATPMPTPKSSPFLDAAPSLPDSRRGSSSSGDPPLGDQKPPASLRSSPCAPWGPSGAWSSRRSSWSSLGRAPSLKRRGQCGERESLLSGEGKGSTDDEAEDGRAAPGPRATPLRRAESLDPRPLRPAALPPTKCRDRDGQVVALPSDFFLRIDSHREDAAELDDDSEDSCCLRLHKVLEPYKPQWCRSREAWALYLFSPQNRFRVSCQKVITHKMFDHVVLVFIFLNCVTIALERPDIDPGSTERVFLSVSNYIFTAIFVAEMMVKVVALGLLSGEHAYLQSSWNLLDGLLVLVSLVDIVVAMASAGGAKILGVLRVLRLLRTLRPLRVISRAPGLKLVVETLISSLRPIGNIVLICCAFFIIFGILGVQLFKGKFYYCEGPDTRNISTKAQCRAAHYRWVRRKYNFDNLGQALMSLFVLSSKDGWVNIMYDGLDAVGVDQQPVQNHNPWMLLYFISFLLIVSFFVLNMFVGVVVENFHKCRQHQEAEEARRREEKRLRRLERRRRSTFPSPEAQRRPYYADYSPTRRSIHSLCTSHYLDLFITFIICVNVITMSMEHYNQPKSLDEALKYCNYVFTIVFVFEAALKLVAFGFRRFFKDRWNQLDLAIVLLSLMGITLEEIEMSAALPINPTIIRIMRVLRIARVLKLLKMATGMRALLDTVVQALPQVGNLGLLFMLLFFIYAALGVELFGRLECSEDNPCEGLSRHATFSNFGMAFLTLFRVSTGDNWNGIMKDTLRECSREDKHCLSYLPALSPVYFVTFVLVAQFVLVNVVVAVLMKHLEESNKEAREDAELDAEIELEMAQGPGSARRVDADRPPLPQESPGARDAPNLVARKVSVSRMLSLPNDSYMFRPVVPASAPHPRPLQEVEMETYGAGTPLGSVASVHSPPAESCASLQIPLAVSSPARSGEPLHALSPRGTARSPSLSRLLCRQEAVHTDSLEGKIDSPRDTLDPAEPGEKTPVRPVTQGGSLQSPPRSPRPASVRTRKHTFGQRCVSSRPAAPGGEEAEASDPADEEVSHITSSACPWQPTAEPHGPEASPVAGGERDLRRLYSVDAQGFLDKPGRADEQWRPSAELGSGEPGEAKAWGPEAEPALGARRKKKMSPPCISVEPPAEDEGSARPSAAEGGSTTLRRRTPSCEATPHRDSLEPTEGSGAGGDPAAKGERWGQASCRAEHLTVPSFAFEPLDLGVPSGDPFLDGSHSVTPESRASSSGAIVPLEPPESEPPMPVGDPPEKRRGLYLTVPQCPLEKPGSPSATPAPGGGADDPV

[2] = molecular target: T2, human α1G T-type channels (Homo sapiens, UniProt O43497); test: T-type calcium channel block, whole cell patch clamp in HEK cells (α1G); assay type: cell-based; settings: HEK cells, patch clamp, mainly non-inactivated protocol; values above 10 μM shown as 10 μM, below 0.30 μM shown as 0.30 μM; read-out: T-type Calcium Channel Block α1G IC50
T2 construct: expressed in transfected cells; host or cells: HEK 293
T2 sequence (O43497 whole entry): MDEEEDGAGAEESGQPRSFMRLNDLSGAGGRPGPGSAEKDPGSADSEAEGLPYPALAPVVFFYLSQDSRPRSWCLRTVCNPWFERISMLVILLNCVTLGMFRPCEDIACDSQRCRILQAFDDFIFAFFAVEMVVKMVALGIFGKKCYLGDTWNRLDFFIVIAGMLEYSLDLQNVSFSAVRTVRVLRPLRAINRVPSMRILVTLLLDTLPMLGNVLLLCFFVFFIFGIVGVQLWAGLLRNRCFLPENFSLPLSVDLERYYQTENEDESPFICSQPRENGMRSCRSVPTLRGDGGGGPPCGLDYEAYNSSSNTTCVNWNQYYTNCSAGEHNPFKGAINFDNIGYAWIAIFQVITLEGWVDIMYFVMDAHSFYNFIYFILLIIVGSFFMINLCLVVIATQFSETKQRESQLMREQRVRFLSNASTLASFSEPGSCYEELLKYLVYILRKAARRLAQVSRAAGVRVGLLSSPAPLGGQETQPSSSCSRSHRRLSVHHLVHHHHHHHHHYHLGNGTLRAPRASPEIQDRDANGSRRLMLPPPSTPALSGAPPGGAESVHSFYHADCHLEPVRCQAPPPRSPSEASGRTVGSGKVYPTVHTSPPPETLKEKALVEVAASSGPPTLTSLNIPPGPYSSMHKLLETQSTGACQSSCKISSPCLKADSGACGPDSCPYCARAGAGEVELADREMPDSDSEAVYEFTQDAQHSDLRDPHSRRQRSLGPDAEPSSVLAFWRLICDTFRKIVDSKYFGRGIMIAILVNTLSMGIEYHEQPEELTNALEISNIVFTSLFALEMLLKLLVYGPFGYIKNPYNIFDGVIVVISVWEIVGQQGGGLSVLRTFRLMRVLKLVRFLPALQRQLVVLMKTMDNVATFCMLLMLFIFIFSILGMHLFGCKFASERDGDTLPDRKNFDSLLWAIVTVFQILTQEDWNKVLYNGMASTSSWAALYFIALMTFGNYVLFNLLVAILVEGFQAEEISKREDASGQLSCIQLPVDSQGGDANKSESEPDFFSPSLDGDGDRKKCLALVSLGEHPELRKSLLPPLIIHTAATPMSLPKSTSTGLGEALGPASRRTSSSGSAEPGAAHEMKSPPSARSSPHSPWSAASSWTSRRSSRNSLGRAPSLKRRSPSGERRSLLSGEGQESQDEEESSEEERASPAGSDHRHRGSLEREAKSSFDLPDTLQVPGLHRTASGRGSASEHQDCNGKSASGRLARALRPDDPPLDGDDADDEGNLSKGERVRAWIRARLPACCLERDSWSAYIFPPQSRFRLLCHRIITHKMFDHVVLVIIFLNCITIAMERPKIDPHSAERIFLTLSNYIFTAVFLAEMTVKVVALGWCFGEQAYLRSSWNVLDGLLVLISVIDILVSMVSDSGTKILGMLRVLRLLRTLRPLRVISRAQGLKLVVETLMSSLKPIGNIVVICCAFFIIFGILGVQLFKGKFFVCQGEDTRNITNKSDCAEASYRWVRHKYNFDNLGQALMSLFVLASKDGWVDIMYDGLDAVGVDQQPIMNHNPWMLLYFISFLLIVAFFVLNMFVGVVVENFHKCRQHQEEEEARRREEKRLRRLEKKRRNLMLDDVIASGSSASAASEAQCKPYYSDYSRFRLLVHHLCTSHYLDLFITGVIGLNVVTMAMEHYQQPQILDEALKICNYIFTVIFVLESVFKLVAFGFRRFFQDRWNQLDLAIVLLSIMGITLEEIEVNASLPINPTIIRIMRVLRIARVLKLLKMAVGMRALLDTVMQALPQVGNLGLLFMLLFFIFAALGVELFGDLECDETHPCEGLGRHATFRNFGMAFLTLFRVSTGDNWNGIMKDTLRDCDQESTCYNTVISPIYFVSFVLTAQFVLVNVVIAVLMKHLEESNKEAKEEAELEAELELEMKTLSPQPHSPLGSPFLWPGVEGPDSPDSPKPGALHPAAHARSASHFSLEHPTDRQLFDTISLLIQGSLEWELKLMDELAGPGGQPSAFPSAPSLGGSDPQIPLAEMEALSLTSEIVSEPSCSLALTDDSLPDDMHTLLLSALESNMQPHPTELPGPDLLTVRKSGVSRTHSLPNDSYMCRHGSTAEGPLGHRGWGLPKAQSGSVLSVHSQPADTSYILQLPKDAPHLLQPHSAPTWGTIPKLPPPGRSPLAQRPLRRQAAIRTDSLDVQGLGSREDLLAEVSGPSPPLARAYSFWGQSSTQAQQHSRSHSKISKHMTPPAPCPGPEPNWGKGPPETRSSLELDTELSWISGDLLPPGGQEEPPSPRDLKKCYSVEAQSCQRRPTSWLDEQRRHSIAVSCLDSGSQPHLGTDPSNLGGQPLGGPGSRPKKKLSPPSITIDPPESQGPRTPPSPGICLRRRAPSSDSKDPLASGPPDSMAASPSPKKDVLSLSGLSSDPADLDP

IC50 [1] [µM]	IC50 [2] [µM]	Structure (SMILES)
1.13	1.31	CN(CC(=O)N1CCC(CNC(=O)c2cc(C(F)(F)F)cc(C(F)(F)F)c2)CC1)C1CCCCC1 [Compound 246, N-((1-(2-(cyclohexyl(methyl)amino)acetyl)piperidin-4-yl)methyl)-3,5-bis(trifluoromethyl)benzamide]
0.14	0.37	COCC(C)(C)NC(=O)C(C)N1CCC(CNC(=O)c2cc(F)cc(Cl)c2)CC1 (centres unmarked) [Compound 551, 3-chloro-5-fluoro-N-((1-(1-(1-methoxy-2-methylpropan-2-ylamino)-1-oxopropan-2-yl)piperidin-4-yl)methyl)benzamide]
0.25	< 0.3	CC1(NC(=O)CN2CCC(CNC(=O)c3cccc(Cl)c3)CC2)CCC1 [Compound 481, 3-chloro-N-((1-(2-(1-methylcyclo-butylamino)-2-oxoethyl)piperidin-4-yl)methyl)benzamide]
> 10	> 10	CC(C)NC(=O)CN1CCC(CNC(=O)c2cccc(Cl)c2)CC1 [Compound 442, 3-chloro-N-((1-(2-(isopropylamino)-2-oxoethyl)piperidin-4-yl)methyl)benzamide]
0.13	< 0.3	COc1cc(F)cc(C(=O)NCC2CCN(CC(=O)NC3CCCC3)CC2)c1 [Compound 532, N-((1-(2-(cyclopentylamino)-2-oxoethyl)piperidin-4-yl)methyl)-3-fluoro-5-methoxybenzamide]
1.62	0.76	COc1cc(Cl)cc(C(=O)NCC2CCN(CCNS(=O)(=O)C(C)C)CC2)c1 [Compound 320, 3-chloro-5-methoxy-N-((1-(2-(1-methylethylsulfonamido)ethyl)piperidin-4-yl)methyl)benzamide]
0.88	1.23	O=C(NCC1CCN(CCNS(=O)(=O)CCCF)CC1)c1cc(F)cc(C(F)(F)F)c1 [Compound 308, 3-fluoro-N-((1-(2-(3-fluoropropylsulfonamido)ethyl)piperidin-4-yl)methyl)-5-(trifluoromethyl)benzamide]
4.8	> 10	CS(=O)(=O)c1cc(C(=O)NCC2CCN(CCNC(=O)C3(C(F)(F)F)CCC3)CC2)cc(C(F)(F)F)c1 [Compound 586, 3-(methylsulfonyl)-5-(trifluoro-methyl)-N-((1-(2-(1-(trifluoromethyl)cyclobutane-carboxamido)ethyl)piperidin-4-yl)methyl)benzamide]
0.16	< 0.3	CC(C)(C(=O)NCCN1CCC(CNC(=O)c2cccc(Cl)c2)CC1)C(F)(F)F [Compound 494, 3-chloro-N-((1-(2-(3,3,3-trifluoro-2,2-dimethylpropanamido)ethyl)piperidin-4-yl)methyl)benzamide]
1.42	0.36	O=C(NCC1CCN(C(=O)CNC2CCCC2)CC1)c1cc(F)cc(C(F)(F)F)c1 [Compound 273, N-((1-(2-(cyclopentylamino)acetyl)piperidin-4-yl)methyl)-3-fluoro-5-(trifluoromethyl)benzamide]
7.92	4.24	CCCNC(=O)CN1CCC(CNC(=O)c2cc(F)cc(Cl)c2)CC1 [Compound 452, 3-chloro-5-fluoro-N-((1-(2-oxo-2-(propylamino)ethyl)piperidin-4-yl)methyl)benzamide]
1.31	0.48	CCC1CCCN1CC(=O)N1CCC(CNC(=O)c2cc(C(F)(F)F)cc(C(F)(F)F)c2)CC1 (centres unmarked) [Compound 253, N-((1-(2-(2-ethylpyrrolidin-1-yl)acetyl)piperidin-4-yl)methyl)-3,5-bis(trifluoromethyl)benzamide]
2.42	3.21	O=C(NCC1CCN(C(=O)CNC2CC2)CC1)c1cc(C(F)(F)F)cc(C(F)(F)F)c1 [Compound 257, N-((1-(2-(cyclopropylamino)acetyl)piperidin-4-yl)methyl)-3,5-bis(trifluoromethyl)benzamide]
> 10	> 10	CC(C)(C)C(=O)NCCN1CCC(CNC(=O)c2cc(C(F)(F)F)ccn2)CC1 [Compound 310, N-((1-(2-pivalamidoethyl)piperidin-4-yl)methyl)-4-(trifluoromethyl) picolinamide]
0.74	1.74	O=C(NCC1CCN(CCNS(=O)(=O)C2CC2)CC1)c1cc(C(F)(F)F)cc(C(F)(F)F)c1 [Compound 19, N-((1-(2-(cyclopropanesulfonamido)ethyl)piperidin-4-yl)methyl)-3,5-bis(trifluoromethyl)benzamide]
0.82	0.76	COCC(C)(C)NC(=O)CN1CCC(CNC(=O)c2cccc(Cl)c2)CC1 [Compound 566, 3-chloro-N-((1-(2-(1-methoxy-2-methylpropan-2-ylamino)-2-oxoethyl)piperidin-4-yl)methyl) benzamide]
7.3	0.34	CC(C)(C)OC(=O)NCCN1CCC(CNC(=O)c2cc(C(C)(C)C)cc(C(C)(C)C)c2)CC1 [Compound 49, tert-butyl 2-(4-((3,5-di-tert-butylbenzamido)methyl)piperidin-1-yl)ethylcarbamate]
0.55	1.4	Cc1cc(F)cc(C(=O)NCC2CCN(CC(=O)N(C)C(C)(C)C)CC2)c1 [Compound 540, N-((1-(2-(tert-butyl(methyl)amino)-2-oxoethyl)piperidin-4-yl)methyl)-3-fluoro-5-methylbenzamide]
> 10	> 10	O=C(/C=C/c1cc(F)cc(F)c1)NCC1CCN(CCNS(=O)(=O)C2CC2)CC1 [Compound 231, (E)-N-((1-(2-(cyclopropanesulfonamido)ethyl)piperidin-4-yl)methyl)-3-(3,5-difluorophenyl)acrylamide]
> 10	> 10	CC(C)(F)CNC(=O)CN1CCC(CNC(=O)c2cccc(Cl)c2)CC1 [Compound 554, 3-chloro-N-((1-(2-(2-fluoro-2-methylpropylamino)-2-oxoethyl)piperidin-4-yl)methyl)benzamide]
> 10	7.19	O=C(NCC1CCN(C(=O)CNCCCN2CCOCC2)CC1)c1cc(C(F)(F)F)cc(C(F)(F)F)c1 [Compound 244, N-((1-(2-(3-morpholinopropylamino)acetyl)piperidin-4-yl)methyl)-3,5-bis(trifluoromethyl)benzamide]
> 10	2.03	CC(C)S(=O)(=O)NC(CN1CCC(CC(=O)NC(c2cccc(F)c2)c2cccc(F)c2)CC1)C(C)(C)C (centres unmarked) [Compound 222, N-(bis(3-fluorophenyl)methyl)-2-(1-(3,3-dimethyl-2-(1-methylethylsulfonamido)butyl)piperidin-4-yl)acetamide]
0.28	< 0.3	CC(C)(C)C(=O)NCCN1CCC(CNC(=O)c2cc(Cl)cc(Cl)c2)CC1 [Compound 298, 3,5-dichloro-N-((1-(2-pivalamidoethyl)piperidin-4-yl)methyl)benzamide]
> 10	> 10	O=C(NCC1CCN(CCNS(=O)(=O)C(F)(F)F)CC1)c1cccc(Br)c1 [Compound 330, 3-bromo-N-((1-(2-(trifluoromethylsulfonamido)ethyl)piperidin-4-yl)methyl)benzamide]
> 10	9.06	CC(C(=O)N1CCSC1)N1CCC(CNC(=O)c2cc(F)cc(Cl)c2)CC1 (centres unmarked) [Compound 559, 3-chloro-5-fluoro-N-((1-(1-oxo-1-(thiazolidin-3-yl)propan-2-yl)piperidin-4-yl)methyl)benzamide]
